Laboratory results published in patent publication US7947466B2 (priority 2003, dated 2011).
Entries after “also recorded” stand apart in the source; their conditions may differ. Read-outs that look alike come from different tables or passages of the source.

Legend:
Lymnaea AChBP [1] = molecular target: T1, Lymnaea AChBP (Lymnaea stagnalis, UniProt P58154); conditions: read-out: Lymnaea Kd; cited from earlier work
Target sequence in this assay (P58154 20-229 limits assumed): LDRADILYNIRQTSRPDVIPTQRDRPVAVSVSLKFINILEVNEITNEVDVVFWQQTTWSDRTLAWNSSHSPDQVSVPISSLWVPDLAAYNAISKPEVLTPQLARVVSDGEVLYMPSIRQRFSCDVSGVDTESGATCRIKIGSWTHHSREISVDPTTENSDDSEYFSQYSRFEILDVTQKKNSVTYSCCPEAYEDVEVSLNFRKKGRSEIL

Aplysia AChBP [2] = molecular target: T2, Aplysia AChBP (Aplysia californica, UniProt Q8WSF8); experiment: biochemical; format: binding
T2 sequence (Q8WSF8 18-236): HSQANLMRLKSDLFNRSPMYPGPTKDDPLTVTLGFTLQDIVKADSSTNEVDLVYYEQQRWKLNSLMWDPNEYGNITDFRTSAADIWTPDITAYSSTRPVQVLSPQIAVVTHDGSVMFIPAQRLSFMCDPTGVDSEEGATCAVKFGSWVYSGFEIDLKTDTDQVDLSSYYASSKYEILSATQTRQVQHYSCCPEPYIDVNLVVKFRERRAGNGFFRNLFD

Lymnaea AChBP [3] = molecular target: T1, Lymnaea AChBP; experiment: biochemical; format: binding
Lymnaea AChBP [4] = molecular target: T1, Lymnaea AChBP; experiment: biochemical; format: binding; remark: listed apart in the source
Target sequence in this assay (P58154 20-229 limits assumed): as the sequence (P58154 20-229 limits assumed) above

Aplysia AChBP [5] = molecular target: T2, Aplysia AChBP; experiment: biochemical; format: binding; remark: listed apart in the source
Lymnaea AChBP [6] = molecular target: T1, Lymnaea AChBP; format: binding
Target sequence in this assay (P58154 20-229 limits assumed): as above

Molecule	Kd Ratio L/A (Aplysia AChBP [2])	k1 Aplysia (Aplysia AChBP [2]) [M⁻¹ s⁻¹]	k−1 Aplysia (Aplysia AChBP [2]) [s⁻¹]	k1 Lymnaea (Lymnaea AChBP [3]) [M⁻¹ s⁻¹]	k−1 Lymnaea (Lymnaea AChBP [3]) [s⁻¹]	Kd (Lymnaea AChBP [3]) [nM]	Kd (Aplysia AChBP [5]) [nM]	change of tryptophan fluorescence on binding, A-AChBP (Aplysia AChBP [5])	k1 (Lymnaea AChBP [3])	k−1 (Lymnaea AChBP [3]) [s⁻¹]	Kd (Lymnaea AChBP [3]; read-out: Kd) [nM]	also measured
CCN1C[C@]2(COC(=O)c3ccccc3N3C(=O)C[C@H](C)C3=O)CC[C@H](OC)[C@@]34[C@@H]5C[C@H]6[C@H](OC)[C@@H]5[C@](O)(C[C@@H]6OC)[C@@](O)([C@@H](OC)[C@H]23)[C@@H]14 [Methyllycaconitine]	0.14	4.4e+07	0.12	1.3e+07	0.005	–	–	–	–	–	–	Kd (Lymnaea AChBP [1]): 0.41 nM; Kd (Aplysia AChBP [2]): 2.8 nM
O=C1C[C@@H]2OCC=C3CN4CC[C@]56c7ccccc7N1[C@H]5[C@H]2[C@H]3C[C@H]46 [Strychnine]	–	–	–	–	–	23	–	–	–	–	–	Kd (Aplysia AChBP [2]): 15 nM
CC[N+](CC)(CC)CCOc1cccc(OCC[N+](CC)(CC)CC)c1OCC[N+](CC)(CC)CC [Gallamine]	1.2	2.5e+08	65	2.5e+08	36	140	120	enhanced fluorescence emission	2.5 ± 0.14 ×10^8 M^−1 s^−1	36 ± 6.5	–	change of tryptophan fluorescence on binding, L-AChBP (Lymnaea AChBP [4]): enhanced tryptophan fluorescence; change of tryptophan fluorescence on binding, Lymnaea AChBP (Example 1) (Lymnaea AChBP [3]): enhancement of the tryptophan fluorescence; also recorded: increase in fluorescence
CC(=O)OCC[N+](C)(C)C [Acetylcholine]	–	–	–	–	–	–	33000	–	–	–	–	–
5-Dimethylaminonaphthylsulfonamidoethyltrimethylammonium [Dansyl-C2-choline]	–	–	–	–	–	–	–	–	2.1e+08 M⁻¹ s⁻¹	2.9	14	–
C[N+](C)(C)CCOC(N)=O [Carbachol]	0.023	–	–	–	–	–	240000	enhanced fluorescence emission	–	–	–	Kd (Lymnaea AChBP [4]): 5600 nM
5-Dimethylaminonaphthylsulfonamidohexyltrimethylammonium [Dansyl-C6-choline]	0.069	–	–	–	–	–	–	–	1.3e+08 M⁻¹ s⁻¹	7.6	58	Kd (Lymnaea AChBP [1]): 110 nM; Kd (Aplysia AChBP [5]; read-out: Aplysia Kd): 1600 nM
COc1cc2c3cc1Oc1cc(ccc1O)C[C@@H]1c4c(cc(OC)c(O)c4Oc4ccc(cc4)C[C@@H]3N(C)CC2)CC[N+]1(C)C [d-Tubocurarine]	–	–	–	–	–	–	–	–	2e+08 M⁻¹ s⁻¹	30	150	–
CN1CCCC1c1cccnc1 (single isomer, unassigned; (-)) [(−)-Nicotine]	–	2.3e+08	49	1.5e+08	5.7	–	245	markedly quenched fluorescence	1.5e+08 M⁻¹ s⁻¹	5.7	–	change of tryptophan fluorescence on binding, L-AChBP (Lymnaea AChBP [4]): markedly quenched fluorescence
Clc1ccc(C2CC3CCC2N3)cn1 (stereo not shown) [Epibatidine]	0.011	2.5e+08	3.4	1.7e+08	0.027	0.16	–	markedly quenched fluorescence	1.7 ± 0.26 ×10^8 M^−1 s^−1	0.027 ± 0.037	–	change of tryptophan fluorescence on binding, L-AChBP (Lymnaea AChBP [4]): markedly quenched fluorescence; quenching of the intrinsic tryptophan fluorescence (Lymnaea AChBP [6]): about 50%; Kd (Aplysia AChBP [2]): 14 nM
C[N+](C)(C)CCCCCCCCCC[N+](C)(C)C [Decamethonium]	–	–	–	–	–	380	–	–	3.2 ± 0.17 ×10^8 M^−1 s^−1	120 ± 17	–	–
α-Bungarotoxin	0.0071	1e+06	0.32	900000	0.001	–	–	–	0.0097 ± 0.002 ×10^8 M^−1 s^−1	0.0017 ± 0.0003	1.8	quenching of the intrinsic tryptophan fluorescence (Lymnaea AChBP [6]): 15-20%; Kd (Lymnaea AChBP [1]): 1.8 nM; lower affinity for A-AChBP than for L-AChBP (Aplysia AChBP [5]): 100 fold; Kd (Aplysia AChBP [5]; read-out: Aplysia Kd): 250 nM; rate of association slower than for epibatidine (Lymnaea AChBP [3]): ~200 fold; unimolecular step k2 (slow phase limiting value) (Lymnaea AChBP [3]): 0.34 s⁻¹
α-Cobratoxin: α-neurotoxin, peptide toxin from elapid venom (protein) IRCFITPDITSKDCPNGHVCYTKTWCDAFCSIRGKRVDLGCAATCPTVKTGVDIQCCSTDNCNPFPTRKRP	–	–	–	–	–	–	–	–	3.3e+06 M⁻¹ s⁻¹	0.011	3.2	–
